pIC50: −log10 of the molar value.
Assays:
Assay type in all cases: cell-based
[1] = target: T1, Protein cereblon/Interleukin-1 receptor-associated kinase 4 (Homo sapiens) (UniProt Q9NWZ3+Q96SW2); assay: Binding affinity to CRBN/IRAK4 in human PBMC cells assessed as inhibition of LPS-stimulated IL-6 production by measuring maximal efficacy incubated for 24 hrs by MSD analysis relative to control
[2] = target: T2, Protein cereblon/Interleukin-1 receptor-associated kinase 4 (Homo sapiens, UniProt Q96SW2+Q9NWZ3); assay: Binding affinity to CRBN/IRAK4 in human PBMC cells assessed as inhibition of LPS-stimulated IL-6 production incubated for 24 hrs by MSD analysis
[3] = target: T1, Protein cereblon/Interleukin-1 receptor-associated kinase 4 (Homo sapiens); assay: Binding affinity to CRBN/IRAK4 in human PBMC cells assessed as inhibition of R848-stimulated IL-6 production by measuring maximal efficacy incubated for 24 hrs by MSD analysis relative to control
[4] = target: T2, Protein cereblon/Interleukin-1 receptor-associated kinase 4; assay: Binding affinity to CRBN/IRAK4 in human PBMC cells assessed as inhibition of R848-stimulated IL-6 production incubated for 24 hrs by MSD analysis

T1 sequence (Q96SW2 whole entry, looked up): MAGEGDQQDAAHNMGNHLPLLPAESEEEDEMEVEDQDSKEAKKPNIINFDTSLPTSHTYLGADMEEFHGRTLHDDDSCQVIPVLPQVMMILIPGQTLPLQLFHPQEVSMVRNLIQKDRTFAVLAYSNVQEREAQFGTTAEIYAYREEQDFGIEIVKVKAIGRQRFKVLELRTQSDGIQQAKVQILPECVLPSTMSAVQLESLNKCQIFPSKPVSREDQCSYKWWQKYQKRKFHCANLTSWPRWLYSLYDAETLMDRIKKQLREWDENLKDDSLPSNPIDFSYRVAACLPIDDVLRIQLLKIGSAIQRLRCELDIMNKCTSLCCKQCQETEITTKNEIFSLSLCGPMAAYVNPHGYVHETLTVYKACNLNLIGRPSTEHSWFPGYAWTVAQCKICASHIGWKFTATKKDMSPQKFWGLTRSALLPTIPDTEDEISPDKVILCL
T1 sequence (Q9NWZ3 whole entry, looked up): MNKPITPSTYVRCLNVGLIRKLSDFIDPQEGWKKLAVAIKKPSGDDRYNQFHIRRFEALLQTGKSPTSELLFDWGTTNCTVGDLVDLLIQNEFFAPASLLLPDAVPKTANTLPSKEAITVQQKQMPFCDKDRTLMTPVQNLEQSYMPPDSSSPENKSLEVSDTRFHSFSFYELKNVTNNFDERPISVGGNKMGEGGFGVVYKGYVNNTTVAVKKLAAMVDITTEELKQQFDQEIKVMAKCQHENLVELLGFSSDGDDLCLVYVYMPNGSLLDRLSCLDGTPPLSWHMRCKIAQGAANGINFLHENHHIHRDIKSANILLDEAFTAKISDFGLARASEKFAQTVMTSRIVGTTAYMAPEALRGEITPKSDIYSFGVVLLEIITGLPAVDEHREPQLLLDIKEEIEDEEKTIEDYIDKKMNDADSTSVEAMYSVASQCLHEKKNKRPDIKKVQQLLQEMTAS
T2 sequence (Q9NWZ3 whole entry): as the sequence (Q9NWZ3 whole entry, looked up) above
T2 sequence (Q96SW2 whole entry): as the sequence (Q96SW2 whole entry, looked up) above

SMILES	Emax [1]	pIC50 [2]	Emax [3]	pIC50 [4]
O=C1CCC(N2C(=O)c3ccc(N4CCC(CN5CCC(N6Cc7cc(NC(=O)c8cnn9cccnc89)c(N8CCN(CC(F)F)CC8)cc7C6=O)CC5)CC4)cc3C2=O)C(=O)N1 (stereo not given)	80%	≤ 8.00	80%	≤ 8.00
CC(C)Oc1cc2c(cc1NC(=O)c1cnn3cccnc13)CN(C1CCN(CC3(F)CN(c4ccc5c(c4F)CN(C4CCC(=O)NC4=O)C5=O)C3)CC1)C2=O (stereo not given)	> 90%	≤ 8.00	> 90%	≤ 7.30
O=C1CCC(N2Cc3ccc(N4CCC(CN5CCC(N6Cc7cc(NC(=O)c8cnn9cccnc89)c(N8CCC(N9CCC9)CC8)cc7C6=O)CC5)CC4)cc3C2=O)C(=O)N1 (stereo not given)	> 90%	> 8.00	> 90%	> 8.00
O=C1CCC(N2Cc3ccc(N4CCC(CN5CCC(n6cc7cc(NC(=O)c8cnn9cccnc89)c(OCC8CC8)cc7n6)CC5)CC4)cc3C2=O)C(=O)N1 (stereo not given)	80%	> 8.00	> 90%	> 8.00
O=C1CCC(N2Cc3cc(N4CCC(CN5CCC(N6Cc7cc(NC(=O)c8cnn9cccnc89)c(N8CCC(N9CCC9)CC8)cc7C6=O)CC5)CC4)ccc3C2=O)C(=O)N1 (stereo not given)	> 90%	> 8.00	> 90%	> 8.00
O=C1CCC(N2Cc3c(ccc(N4CCC(CN5CCC(n6cc7cc(NC(=O)c8cnn9cccnc89)c(N8CCN(CC(F)F)CC8)cc7n6)CC5)CC4)c3F)C2=O)C(=O)N1 (stereo not given)	80%	> 8.00	> 90%	> 8.00
CC(C)Oc1cc2c(cc1NC(=O)c1cnn3cccnc13)CN(C1CCN(C(C)(C)C3CN(c4ccc5c(c4)C(=O)N(C4CCC(=O)NC4=O)C5=O)C3)CC1)C2=O (stereo not given)	> 90%	≤ 8.00	> 90%	≤ 8.00
O=C1CCC(N2Cc3cc(N4CCC(CN5CCC(n6cc7cc(NC(=O)c8cnn9cccnc89)c(OCC(F)F)cc7n6)CC5)CC4)ccc3C2=O)C(=O)N1 (stereo not given)	70%	≤ 8.00	> 90%	> 8.00
CC(C)Oc1cc2c(cc1NC(=O)c1cnn3cccnc13)CN(C1CCN(CC3CCN(c4ccc5c(c4)C(=O)N(C4CCC(=O)NC4=O)C5=O)CC3)CC1)C2=O (stereo not given)	80%	> 8.00	> 90%	> 8.00
O=C1CCC(N2Cc3ccc(N4CC(F)(CN5CCC(N6Cc7cc(NC(=O)c8cnn9cccnc89)c(N8CCC(N9CCC9)CC8)cc7C6=O)CC5)C4)cc3C2=O)C(=O)N1 (stereo not given)	80%	> 8.00	> 90%	> 8.00

Source: ChEMBL document CHEMBL5257136, “PROTAC Targeted Degradation of IRAK-4 as Potential Treatment in Cancer” (ACS Med Chem Lett, 2023)
